Data set [1] can be described thus: Peroxide value (PV) by chlorimetric ferric thiocyanate method after storage. It counts as physicochemical. As to conditions: after storage in open glass; spectrophotometric ferric thiocyanate method; unit assumed. The source says: The present invention also contemplates stabilization of CLA containing compounds, including but not limited to, CLA, esters of CLA, and triglycerides of CLA by preventing oxidation of the compounds. The present invention is not limited to any one mechanism. Indeed, an understanding of the mechanism of the invention is not necessary to produce the composition or perform the methods of the present invention. […] After storage in open glass, the PV of CLA was 32; in comparison, the value for linoleic acid was 370.

Data set [2] deals with rat mammary tumorigenesis. The following applies: administration of CLA; Birt et al. 1992; cited from earlier work.
The subject of data set [3] is human melanoma, colorectal and breast cancer cells. The following applies: in vitro; cited from earlier work.
For data set [4] the following is noted: diets containing 0.5 percent CLA; pigs, mice, humans; U.S. Pat. No. 5,554,646; cited from earlier work.

Regarding `CCCCC/C=C\C/C=C\CCCCCCCC(=O)O` [linoleic acid], the peroxide value (PV) in data set [1] stood at 370 meq/kg.
Turning to conjugated linoleic acid [CLA], the peroxide value (PV) in data set [1] came to 32 meq/kg. In addition, in data set [2], the rat mammary tumorigenesis entry is recorded as “inhibits rat mammary tumorigenesis”. For the same molecule, the cytotoxicity result in data set [3] is “strong cytotoxic agent”. The fat content result in data set [4] is “significant drop in fat content”.

The values are drawn from US7115759B2, “Conjugated linoleic acid compositions” (Natural ASA, priority 2002, dated 2006).
